# Laboratory results from paper PMC6657668, “Porcine Beta-Defensin 2 Provides Protection Against Bacterial Infection by a Direct Bactericidal Activity and Alleviates Inflammation via Interference With the TLR4/NF-κB Pathway” (Frontiers in Immunology, 2019).
# Where a SMILES comes first, the peptide text is derived from it.
# Legend:
# [1] = type: binding, Escherichia coli O55:B5; details: ITC, 25°C; PBD-2 0.75 mM in syringe, LPS in cell (0.010 to 0.050 mM; Figure S6: 0.050 mM)
# S. Typhimurium [2] = assay: Bacterial load in caecum of mice infected with S. Typhimurium; details: PBD-2 expressed in TG mice; oral 2.5 × 10^8 CFU; 24 h post-infection; n = 6; vs WT
# Procedure: (§1) Four infection experiments were conducted to determine the resistance to S. Typhimurium of the TG mice. For body weight measurements, 7 WT and 7 TG mice were orally administered with 2.5 × 10^8 CFU of S. Typhimurium, and the body weight of each mouse was measured on days 1, 2, 3, 4, and 5 after infection. For the detection of the tissue weight ratios, bacterial loads in tissues and tissue lesions after S. Typhimurium infection, 9 WT and 8 TG mice were orally administered with 2.5 × 10^8 CFU of S. Typhimurium. The spleen, caecum and body weights of the mice were weighed at 24 h post-infection. The bacterial loads in the tissues were also measured ([26]). The spleen and caecum were weighed and homogenized in cold PBS at a ratio of 4 ml per gram of tissue and coated plates. The bacterial numbers in the homogenates were counted by serially diluting the homogenates and spreading on plates. Caeca were harvested for histopathological analysis by using the methods described above. The intestinal damage, including epithelial damage, submucosal oedema, and neutrophil aggregation, was observed.
# [3] = PBD-2 overexpressed in TG pigs; ref [16]; cited from earlier work
# From the text: The antibiotic resistance of pathogenic bacteria has become a global threat ([30]). Defensins are natural peptides secreted by many species and implicated in resisting bacterial infection ([31]). PBD-2 is one of the defensins expressed in pigs. […] The invasion of S. Typhimurium can increase the expression of PBD-2 in porcine epithelial cells ([32]). […] PBD-2 also improves the growth perf ...
# S. Typhimurium [4] = assay: Histopathology of caecum of mice infected with S. Typhimurium; details: PBD-2 expressed in TG mice; oral 2.5 × 10^8 CFU; 24 h post-infection; H&E; vs WT
# Procedure: as §1
# [5] = transgenic expression; ref [24]; cited from earlier work
# BSA = assay: Interaction with BSA (control), far-Western blot; type: binding, bovine; details: PBD-2 10 μg/ml, 37°C, 2 h
# Procedure: TLR4 and BSA proteins as a control were subject to SDS-PAGE and electro-transferred onto a PVDF membrane. The PVDF membrane was blocked with 10 μg/ml BSA in PBST at 37°C for 2 h, washed five times with PBST and incubated with PBST that contained 10 μg/ml PBD-2 or 10 μg/ml BSA as a control at 37°C for 2 h. After the membranes were washed, the PVDF membrane was incubated with anti-PBD-2 antisera (with a titer 1:500,000) at 37°C for 2 h and washed five times with PBST. The membrane was then incubated with the secondary antibodies, namely, goat anti-mouse IgG (# AS003, ABclonal®, Wuhan, China), at 37°C for 2 h and washed five times with PBST. Lastly, immune-reactive bands were detected using an ECF Western blot system (Tanon 5200 Multi, Shanghai, China).
# [6] = PBD-2 expressed in TG mice, uninfected, n ≥ 6, vs WT
# Procedure: After the mice were euthanized, blood samples of TG and WT mice were collected. Alanine aminotransferase, aspartate aminotransferase, albumin, globin, albumin/globin, total bilirubin, direct bilirubin, urea, creatinine, urea/creatinine, glucose, potassium, and sodium were analyzed using a blood routine analyser (Mindray, Shenzhen China). Their heart, liver, spleen, lung, kidney, brain and intestinal segments were harvested. The histological morphologies of the mice organs and the body and organ weights of male and female mice were characterized.
# (B) Comparison of body weights between TG and WT mice. (C) Comparison of weight ratios of organs, including heart, liver, spleen, lung, kidney, and brain (organ weight/body weight) between TG and WT mice. Data are represented as means ± SD (WT, n ≥ 6; TG, n ≥ 6).
# [7] = parameters: method as in 2 sources, one per row (each row's own in cited_ref): ref [13] = [13]; PMID 27383796; doi:10.5713/ajas.16.0207; 13. Xu J Zhong F Zhang Y Zhang J Huo S Lin H . Construction of Bacillus subtilis strain engineered for expression of porcine beta-defensin-2/cecropin P1 fusion antimicrobial peptides and its growth-pr ||| ref [15] = [15]; PMID 26707031; doi:10.1111/asj.12540; 15. Tang Z Xu L Shi B Deng H Lai X Liu J . Oral administration of synthetic porcine beta-defensin-2 improves growth performance and cecal microbial flora and down-regulates the expression of intestina; details: cited from earlier work
# [8] = tested on: LPS-induced production of cytokines; assay: Serum cytokine levels of mice injected with LPS (ELISA); type: in vivo, mouse; details: 1 h, n = 6
# Procedure: Six TG mice and six WT mice were separately injected with LPS (16 mg/kg body weight) intraperitoneally. The same number of TG mice and WT mice was injected with 100 μl of sterile PBS as a negative control. The sera from the mice in each group were collected 1 h after the injection to detect cytokines by ELISA.
# The WT mice were injected with LPS alone or LPS with PBD-2 (0.5 mg/kg body weight) intraperitoneally (n = 6 each group) to detect the effect of synthetic PBD-2 on inflammation induced by LPS. The sera from the mice in each group were collected 1 h after the injection to detect the cytokines by ELISA.
# TLR4 = assay: Interaction of PBD-2 with TLR4 in RAW 264.7 cells, coimmunoprecipitation; type: binding, mouse; details: PBD-2 1, 10, 30, and 50 μg/ml, 16 h, captured with PBD-2 antisera
# Procedure: A Co-IP assay was conducted using a Co-IP kit (# abs955, Absin®, Shanghai, China) in accordance with the manufacturer's instructions. In brief, RAW 264.7 cells were cultured in dishes of 10 cm in diameter. The cells (1 × 10^7) were treated with different concentrations of PBD-2 (1, 10, 30, and 50 μg/ml) for 16 h and lysed using a lysis buffer that contained protease inhibitors […]. The soluble faction of the cell lysate was collected after centrifugation at 14,000 × g at 4°C for 10 min. Afterwards, 2 μl of PBD-2 antisera (with titer 1:500,000) or 2 μl of mouse IgG antisera (# sc-2025, Santa Cruz®, CA, USA) as control were incubated with 200 μg of the cell lysate at 4°C for 12 h. Protein A/G beads (5 μl) were added and incubated at 4°C for 12 h. The precipitates with the immune complexes were collected by centrifugation at 12,000 × g at 4°C for 1 min. The beads were washed with a wash buffer. TLR4 in the precipitates was detected with Western blot by using an antibody against TLR4 (# sc-293072, Santa Cruz®, Santa Cruz, CA, USA).
# [9] = type: biochemical, Escherichia coli O55:B5; details: PBD-2 1, 5, and 10 μg/ml mixed with LPS, 37°C, 10 min; n = 6
# [10] = PBD-2 expressed in TG mice, LPS 16 mg/kg i.p., vs WT
# [11] = synthetic PBD-2 0.5 mg/kg i.p. with LPS 16 mg/kg, WT mice, vs LPS alone
smiles,measurement,setting,value
"CC[C@H](C)[C@H](NC(=O)[C@@H]1CSSC[C@@H]2NC(=O)[C@@H]3CCCN3C(=O)[C@H](CO)NC(=O)[C@H](Cc3ccccc3)NC(=O)[C@H](CC(N)=O)NC(=O)[C@@H]3CSSC[C@H](NC(=O)[C@H]([C@@H](C)O)NC(=O)CNC(=O)[C@H](CCC(=O)O)NC(=O)[C@H]([C@@H](C)CC)NC(=O)[C@H](CCCNC(=N)N)NC(=O)[C@H](CC(N)=O)NC(=O)[C@H](Cc4ccccc4)NC(=O)[C@H](CC(C)C)NC(=O)[C@@H]4CCCN4C2=O)C(=O)N[C@@H](Cc2ccc(O)cc2)C(=O)N[C@@H](CO)C(=O)NCC(=O)N[C@@H](CCCCN)C(=O)N[C@@H](C)C(=O)N[C@@H](CCCCN)C(=O)N[C@@H](CSSC[C@H](NC(=O)[C@@H](NC(=O)[C@H](Cc2ccc(O)cc2)NC(=O)[C@H](Cc2c[nH]cn2)NC(=O)[C@@H](N)CC(=O)O)[C@@H](C)CC)C(=O)N[C@@H](C)C(=O)N[C@@H](CCCCN)C(=O)N[C@@H](CCCCN)C(=O)NCC(=O)NCC(=O)N[C@@H]([C@@H](C)O)C(=O)N3)C(=O)N1)C(=O)N[C@@H](CCCNC(=N)N)C(=O)O [PBD-2, Porcine beta-defensin 2] (HELM PEPTIDE1{D.H.Y.I.C.A.K.K.G.G.T.C.N.F.S.P.C.P.L.F.N.R.I.E.G.T.C.Y.S.G.K.A.K.C.C.I.R}$PEPTIDE1,PEPTIDE1,5:R3-34:R3|PEPTIDE1,PEPTIDE1,12:R3-27:R3|PEPTIDE1,PEPTIDE1,17:R3-35:R3$$$V2.0; N-terminus and C-terminus assumed)",binding to LPS,[1],did not bind to LPS
same,bacterial load in the caecum,S. Typhimurium [2],smaller amount of bacterial load in the caecum compared with the WT mice (p < 0.05)
same,bactericidal activity of the serum of TG pigs,[3],higher than that of WT pigs
same,intestinal damage of the caecum (epithelial damage and submucosal oedema),S. Typhimurium [4],significantly milder intestinal damage (epithelial damage and submucosal oedema)
same,neutrophil aggregation in the caecum,S. Typhimurium [4],less neutrophil aggregation compared with that of the WT mice
same,expression level of PBD-2 in the TG mice,[5],≤ 10^4 ng/g tissue
same,binding to BSA on PVDF membrane,BSA,not to BSA
same,ratio of organ weight to total body weight,"[6]; heart, liver, spleen, lung, kidney, brain",did not significantly differ from the WT mice in terms of body weight (Figure S1B) and the ratio of organ weight to total body weight
same,body weight,[6],did not significantly differ from the WT mice in terms of body weight
same,"growth performance, caecum microbial flora, inflammatory cytokine expression","[7]; oral administration, pigs, ref [15]",improve growth performance and caecum microbial flora and reduce the expression of inflammatory cytokines in pigs
same,growth and diarrhea in piglets,[7]; ref [13],"promote growth, alleviate diarrhea in piglets"
same,LPS-induced IL-1β in serum,[8]; [10],significantly lower in the TG mice than in the WT mice (p < 0.05)
same,LPS-induced IL-6 in serum,[8]; [10],significantly lower in the TG mice than in the WT mice (p < 0.05)
same,LPS-induced IL-12 in serum,[8]; [10],significantly lower in the TG mice than in the WT mice (p < 0.05)
same,LPS-induced TNF-α in serum,[8]; [10],significantly lower in the TG mice than in the WT mice (p < 0.05)
same,LPS-induced IL-1β in serum,[8]; [11],"significantly lower levels of secreted TNF-α, IL-6, IL-1β, and IL-12 than those injected with LPS alone (p < 0.05)"
same,LPS-induced IL-6 in serum,[8]; [11],"significantly lower levels of secreted TNF-α, IL-6, IL-1β, and IL-12 than those injected with LPS alone (p < 0.05)"
same,LPS-induced IL-12 in serum,[8]; [11],"significantly lower levels of secreted TNF-α, IL-6, IL-1β, and IL-12 than those injected with LPS alone (p < 0.05)"
same,LPS-induced TNF-α in serum,[8]; [11],"significantly lower levels of secreted TNF-α, IL-6, IL-1β, and IL-12 than those injected with LPS alone (p < 0.05)"
same,coimmunoprecipitation of TLR4 with PBD-2,TLR4,could react with the antibody against TLR4
same,endotoxic activity of LPS,[9],did not affect the endotoxic activity of LPS
